# Test results reported in patent USRE47302E1 (ONYX THERAPEUTICS INC., priority 2013, dated 2019).
# What was measured:
# [1] = target: T1, proteasome subunit β5 (beta5) (Homo sapiens, UniProt P28074); test: Proteasome active-site ELISA (ProCISE), beta5, MOLT-4 lysate; type: biochemical; conditions: MOLT4 lysate, human, 1 h continuous treatment, 25° C.
# T1 construct: Lysate from the human acute lymphoblastic leukemia cell line, MOLT-4; endogenous in cells; host or cells: MOLT-4
# Method in brief: (§1)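 MOLT-4 cell lysate treated 1 h at 25 °C with compound; probe-bound subunits denatured, pulled down on streptavidin beads and detected with subunit-specific antibodies plus HRP chemiluminescence.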
# [2] = target: T2, immunoproteasome subunit LMP7 (Homo sapiens, UniProt P28062); test: Proteasome active-site ELISA (ProCISE), LMP7, MOLT-4 lysate; type: biochemical; conditions: MOLT4 lysate, 1 h continuous treatment, 25° C.
# T2 construct: Lysate from the human acute lymphoblastic leukemia cell line, MOLT-4; endogenous in cells; host or cells: MOLT-4
# Method in brief: as §1
# [3] = target: human 20S immunoproteasome (i20S) (Homo sapiens, UniProt P28062); test: 20S proteasome assay, chymotrypsin-like activity (succinyl-Leu-Leu-Val-Tyr-AMC), i20S; type: biochemical; conditions: LLVY substrate, 1 h continuous
# Description: (§2) Assay buffer consisted of TE buffer [20 mmol/L Tris (pH 8.0), 0.5 mmol/L EDTA] with (20S) or without (cell lysate) 0.03% SDS. Reactions were initiated by enzyme or lysate addition and monitored for AMC product formation at 27jC with a plate-based spectofluorometer (Tecan).
# [4] = target: human constitutive 20S proteasome (c20S) (Homo sapiens, UniProt P28074); test: 20S proteasome assay, chymotrypsin-like activity (succinyl-Leu-Leu-Val-Tyr-AMC), c20S; type: biochemical; conditions: LLVY substrate, 1 h continuous
# Description: as §2
# Solubility pH 7 = conditions: pH 7, aqueous buffer
Structure (SMILES),IC50 [1] [nM],IC50 [2] [nM],IC50 [3] [nM],IC50 [4] [nM],solubility (Solubility pH 7) [µg/mL]
"C[C@H](NC(=O)CN1CCOCC1)C(=O)N[C@@H](Cc1cccc(S(C)(=O)=O)c1)C(=O)N[C@@H](CC1CCCC1)C(=O)[C@@]1(C)CO1 [Compound C-1024, (S)-N-((S)-3-cyclopentyl-1-((R)-2-methyloxiran-2-yl)-1-oxopropan-2-yl)-3-(3-(methylsulfonyl)phenyl)-2-((S)-2-(2-morpholinoacetamido)propanamido)propanamide]",–,–,707,715,4760
"COc1ccc(C[C@H](NC(=O)[C@@H](C)NC(=O)[C@@H]2CCCO2)C(=O)N[C@@H](CC2CCCC2)C(=O)[C@@]2(C)CO2)cc1 [Compound C-1031, (S)-N-((R)-1-(((S)-1-(((S)-3-cyclopentyl-1-((R)-2-methyloxiran-2-yl)-1-oxopropan-2-yl)amino)-3-(4-methoxyphenyl)-1-oxopropan-2-yl)amino)-1-oxopropan-2-yl)tetrahydrofuran-2-carboxamide]",–,–,2980,> 250000,462
"COc1ccc(C[C@H](NC(=O)[C@H](C)NC(=O)CN2CCOCC2)C(=O)N[C@@H](C[C@@H]2CCC(F)(F)C2)C(=O)[C@@]2(C)CO2)cc1 [Compound C-1033, (S)-N-((S)-3-((S)-3,3-difluorocyclopentyl)-1-((R)-2-methyloxiran-2-yl)-1-oxopropan-2-yl)-3-(4-methoxyphenyl)-2-((S)-2-(2-morpholinoacetamido)propanamido)propanamide]",–,–,3100,121000,3210
"COc1ccc(C[C@H](NC(=O)[C@@H](C)NC(=O)[C@H]2CCOC2)C(=O)N[C@@H](CC2CCCC2)C(=O)[C@@]2(C)CO2)cc1 [Compound C-1037, (S)-N-((R)-1-(((S)-1-(((S)-3-cyclopentyl-1-((R)-2-methyloxiran-2-yl)-1-oxopropan-2-yl)amino)-3-(4-methoxyphenyl)-1-oxopropan-2-yl)amino)-1-oxopropan-2-yl)tetrahydrofuran-3-carboxamide]",–,–,356,5860,1330
"C[C@H](NC(=O)CN1CCOCC1)C(=O)N[C@@H](Cc1ccc(O)c(O)c1)C(=O)N[C@@H](CC1CCCC1)C(=O)[C@@]1(C)CO1 [Compound C-1039, (S)-N-((S)-3-cyclopentyl-1-((R)-2-methyloxiran-2-yl)-1-oxopropan-2-yl)-3-(3,4-dihydroxyphenyl)-2-((S)-2-(2-morpholinoacetamido)propanamido)propanamide]",–,–,202,694,7010
"COc1ccc(C[C@H](NC(=O)[C@H](C)NC(=O)CN2CCCC(F)(F)C2)C(=O)N[C@@H](CC2CCCC2)C(=O)[C@@]2(C)CO2)cc1 [Compound C-1043, (S)-N-((S)-3-cyclopentyl-1-((R)-2-methyloxiran-2-yl)-1-oxopropan-2-yl)-2-((S)-2-(2-(3,3-difluoropiperidin-1-yl)acetamido)propanamido)-3-(4-methoxyphenyl)propanamide]",–,–,251,404,79.2
"COc1ccc(C[C@H](NC(=O)[C@H](C)NC(=O)CN2CCOCC2)C(=O)N[C@@H](CC2=C(C)CCC2)C(=O)[C@@]2(C)CO2)cc1 [Compound C-1044, (S)-3-(4-methoxyphenyl)-N-((S)-3-(2-methylcyclopent-1-en-1-yl)-1-((R)-2-methyloxiran-2-yl)-1-oxopropan-2-yl)-2-((S)-2-(2-morpholinoacetamido)propanamido)propanamide]",–,–,2580,9090,1900
"COc1ccc(C[C@H](NC(=O)[C@H](C)NC(=O)CN2CCC(C(F)(F)F)CC2)C(=O)N[C@@H](CC2CCCC2)C(=O)[C@@]2(C)CO2)cc1 [Compound C-1047, (S)-N-((S)-3-cyclopentyl-1-((R)-2-methyloxiran-2-yl)-1-oxopropan-2-yl)-3-(4-methoxyphenyl)-2-((S)-2-(2-(4-(trifluoromethyl)piperidin-1-yl)acetamido)propanamido)propanamide]",–,–,438,707,24.1
"COc1ccc(C[C@H](NC(=O)[C@@H](C)NC(=O)[C@@H]2CCC(=O)NC2)C(=O)N[C@@H](CC2CCCC2)C(=O)[C@@]2(C)CO2)cc1 [Compound C-1058, (R)-N-((R)-1-(((S)-1-(((S)-3-cyclopentyl-1-((R)-2-methyloxiran-2-yl)-1-oxopropan-2-yl)amino)-3-(4-methoxyphenyl)-1-oxopropan-2-yl)amino)-1-oxopropan-2-yl)-6-oxopiperidine-3-carboxamide]",–,–,1610,54800,3010
"COc1ccc(C[C@H](NC(=O)[C@@H](C)NC(=O)[C@H]2CCC(=O)NC2)C(=O)N[C@@H](CC2CCCC2)C(=O)[C@@]2(C)CO2)cc1 [Compound C-1059, (S)-N-((R)-1-(((S)-1-(((S)-3-cyclopentyl-1-((R)-2-methyloxiran-2-yl)-1-oxopropan-2-yl)amino)-3-(4-methoxyphenyl)-1-oxopropan-2-yl)amino)-1-oxopropan-2-yl)-6-oxopiperidine-3-carboxamide]",–,–,1650,38400,6010

# Further lines, results first:
IC50 [1] [nM],IC50 [2] [nM],IC50 [3] [nM],IC50 [4] [nM],solubility (Solubility pH 7) [µg/mL],Structure (SMILES)
1940,185,70.4,519,1760,"COc1ccc(C[C@H](NC(=O)[C@H](C)NC(=O)CN2CCOCC2)C(=O)N[C@@H](CC2CCCC2)C(=O)[C@@]2(C)CO2)cc1 [Compound C-1005, (S)-N-((S)-3-cyclopentyl-1-((R)-2-methyloxiran-2-yl)-1-oxopropan-2-yl)-3-(4-methoxyphenyl)-2-((S)-2-(2-morpholinoacetamido)propanamido)propanamide]"
2360,314,106,440,878,"C[C@H](NC(=O)CN1CCOCC1)C(=O)N[C@@H](Cc1ccc2occc2c1)C(=O)N[C@@H](CC1CCCC1)C(=O)[C@@]1(C)CO1 [Compound C-1007, (S)-3-(benzofuran-5-yl)-N-((S)-3-cyclopentyl-1-((R)-2-methyloxiran-2-yl)-1-oxopropan-2-yl)-2-((S)-2-(2-morpholinoacetamido)propanamido)propanamide]"
–,–,436,24800,251,"COc1ccc(C[C@H](NC(=O)[C@@H](C)NC(=O)[C@H]2CCCO2)C(=O)N[C@@H](CC2CCCC2)C(=O)[C@@]2(C)CO2)cc1 [Compound C-1032, (R)-N-((R)-1-(((S)-1-(((S)-3-cyclopentyl-1-((R)-2-methyloxiran-2-yl)-1-oxopropan-2-yl)amino)-3-(4-methoxyphenyl)-1-oxopropan-2-yl)amino)-1-oxopropan-2-yl)tetrahydrofuran-2-carboxamide]"
–,–,1050,25400,2780,"COc1ccc(C[C@H](NC(=O)[C@H](C)NC(=O)CN2CCOCC2)C(=O)N[C@@H](C[C@H]2CCC(F)(F)C2)C(=O)[C@@]2(C)CO2)cc1 [Compound C-1034, (S)-N-((S)-3-((R)-3,3-difluorocyclopentyl)-1-((R)-2-methyloxiran-2-yl)-1-oxopropan-2-yl)-3-(4-methoxyphenyl)-2-((S)-2-(2-morpholinoacetamido)propanamido)propanamide]"
–,–,480,16500,277,"COc1ccc(C[C@H](NC(=O)[C@@H](C)NC(=O)[C@@H]2CCOC2)C(=O)N[C@@H](CC2CCCC2)C(=O)[C@@]2(C)CO2)cc1 [Compound C-1036, (R)-N-((R)-1-(((S)-1-(((S)-3-cyclopentyl-1-((R)-2-methyloxiran-2-yl)-1-oxopropan-2-yl)amino)-3-(4-methoxyphenyl)-1-oxopropan-2-yl)amino)-1-oxopropan-2-yl)tetrahydrofuran-3-carboxamide]"
–,–,308,470,50.2,"COc1ccc(C[C@H](NC(=O)[C@H](C)NC(=O)CN2CCC(Cl)CC2)C(=O)N[C@@H](CC2CCCC2)C(=O)[C@@]2(C)CO2)cc1 [Compound C-1045, (S)-2-((S)-2-(2-(4-chloropiperidin-1-yl)acetamido)propanamido)-N-((S)-3-cyclopentyl-1-((R)-2-methyloxiran-2-yl)-1-oxopropan-2-yl)-3-(4-methoxyphenyl)propanamide]"
–,–,549,2630,153,"COc1ccc(C[C@H](NC(=O)[C@H](C)NC(=O)CN2CCC(F)(F)C2)C(=O)N[C@@H](CC2CCCC2)C(=O)[C@@]2(C)CO2)cc1 [Compound C-1048, (S)-N-((S)-3-cyclopentyl-1-((R)-2-methyloxiran-2-yl)-1-oxopropan-2-yl)-2-((S)-2-(2-(3,3-difluoropyrrolidin-1-yl)acetamido)propanamido)-3-(4-methoxyphenyl)propanamide]"
–,–,113,301,1910,"C[C@H](NC(=O)CN1CCOCC1)C(=O)N[C@@H](Cc1ccc(F)cn1)C(=O)N[C@@H](Cc1ccccc1)C(=O)[C@@]1(C)CO1 [Compound C-1154, (S)-3-(5-fluoropyridin-2-yl)-N-((S)-1-((R)-2-methyloxiran-2-yl)-1-oxo-3-phenylpropan-2-yl)-2-((S)-2-(2-morpholinoacetamido)propanamido)propanamide]"
